Source: ChEMBL document CHEMBL1139487, “Discovery of corticotropin releasing factor 2 receptor selective sauvagine analogues for treatment of skeletal muscle atrophy” (J Med Chem, 2005)
Square brackets hold non-standard residues; d marks the D form. Peptide text beside a SMILES is read from it. 1Nal = N[C@@H](Cc1cccc2ccccc12)C(=O)O; 2Nal = N[C@@H](Cc1ccc2ccccc2c1)C(=O)O; pGlu = O=C1CC[C@@H](C(=O)O)N1

How the values were obtained:
[1] = biological target: T1, Corticotropin-releasing factor receptor 1 (Mus musculus, UniProt P35347); assay: In vitro effective concentration for mouse corticotropin releasing factor 1 receptor
T1 sequence (P35347 whole entry): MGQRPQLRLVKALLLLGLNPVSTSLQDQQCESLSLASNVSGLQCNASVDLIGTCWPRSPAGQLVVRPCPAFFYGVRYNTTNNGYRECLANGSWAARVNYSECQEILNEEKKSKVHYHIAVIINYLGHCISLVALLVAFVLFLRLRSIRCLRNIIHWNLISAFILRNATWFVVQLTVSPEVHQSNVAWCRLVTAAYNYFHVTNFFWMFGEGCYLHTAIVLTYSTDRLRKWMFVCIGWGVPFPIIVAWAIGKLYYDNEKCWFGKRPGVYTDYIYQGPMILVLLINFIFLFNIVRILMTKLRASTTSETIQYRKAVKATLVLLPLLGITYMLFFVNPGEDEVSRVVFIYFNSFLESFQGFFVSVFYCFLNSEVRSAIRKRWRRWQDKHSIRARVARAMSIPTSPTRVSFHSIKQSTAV

[2] = biological target: Corticotropin-releasing factor receptor 2 (Mus musculus, UniProt Q60748); assay: In vitro effective concentration for mouse corticotropin releasing factor 2 receptor
Corticotropin-releasing factor receptor 2, sequence (Q60748 whole entry): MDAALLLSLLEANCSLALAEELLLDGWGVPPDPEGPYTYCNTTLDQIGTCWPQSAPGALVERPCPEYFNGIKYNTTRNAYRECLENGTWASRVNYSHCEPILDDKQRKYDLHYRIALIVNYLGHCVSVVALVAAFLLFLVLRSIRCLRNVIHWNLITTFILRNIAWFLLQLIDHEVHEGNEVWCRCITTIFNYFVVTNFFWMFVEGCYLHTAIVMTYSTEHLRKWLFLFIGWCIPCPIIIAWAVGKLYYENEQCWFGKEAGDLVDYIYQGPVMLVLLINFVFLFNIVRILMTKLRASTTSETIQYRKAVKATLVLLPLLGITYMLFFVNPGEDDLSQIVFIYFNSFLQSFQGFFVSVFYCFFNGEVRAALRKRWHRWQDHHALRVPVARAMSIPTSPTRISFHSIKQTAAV

With `CC[C@H](C)[C@H](NC(=O)[C@@H](NC(=O)[C@H](CC(=O)O)NC(=O)[C@H](CC(C)C)NC(=O)[C@H](CC(C)C)NC(=O)[C@H](CC(C)C)NC(=O)[C@H](CCCNC(=N)N)NC(=O)[C@H](CC(N)=O)NC(=O)[C@H](CC(N)=O)NC(=O)[C@H](C)NC(=O)[C@H](C)NC(=O)[C@H](CCC(N)=O)NC(=O)[C@H](CCC(N)=O)NC(=O)[C@H](CCCCN)NC(=O)[C@H](CCC(=O)O)NC(=O)[C@H](CCCCN)NC(=O)[C@H](CCC(=O)O)NC(=O)[C@H](CCC(N)=O)NC(=O)[C@H](CCCCN)NC(=O)[C@H](CCC(=O)O)NC(=O)[C@@H](NC(=O)[C@H](CCC(=O)O)NC(=O)[C@@H](NC(=O)[C@H](CCSC)NC(=O)[C@H](CCCCN)NC(=O)[C@H](CCCNC(=N)N)NC(=O)[C@H](CC(C)C)NC(=O)[C@H](CC(C)C)NC(=O)[C@H](Cc1ccc(O)cc1)NC(=O)[C@@H](NC(=O)[C@@H]1CCCN1C(=O)[C@H](CC(C)C)NC(=O)[C@H](CC(=O)O)NC(=O)[C@@H](NC(=O)[C@H](CO)NC(=O)[C@@H](NC(=O)[C@@H]1CCCN1C(=O)[C@@H]1CCCN1C(=O)CNC(=O)[C@@H]1CCC(=O)N1)[C@@H](C)CC)[C@@H](C)CC)[C@@H](C)CC)[C@@H](C)CC)[C@@H](C)CC)[C@@H](C)O)C(=O)O` the EC50 [1] was over 1000 nM and the EC50 [2] was 22.3 nM.
In the case of `CC[C@H](C)[C@H](NC(=O)[C@@H](NC(=O)[C@H](CC(=O)O)NC(=O)[C@H](CC(C)C)NC(=O)[C@H](CC(C)C)NC(=O)[C@H](CC(C)C)NC(=O)[C@H](CCCNC(=N)N)NC(=O)[C@H](CC(N)=O)NC(=O)[C@H](CC(N)=O)NC(=O)[C@H](C)NC(=O)[C@H](C)NC(=O)[C@H](CCC(N)=O)NC(=O)[C@H](CCC(N)=O)NC(=O)[C@H](CCCCN)NC(=O)[C@H](CCC(=O)O)NC(=O)[C@H](CCCCN)NC(=O)[C@H](CCC(=O)O)NC(=O)[C@H](CCC(N)=O)NC(=O)[C@H](CCCCN)NC(=O)[C@H](CCC(=O)O)NC(=O)[C@@H](NC(=O)[C@H](CCC(=O)O)NC(=O)[C@@H](NC(=O)[C@H](CCSC)NC(=O)[C@H](CCCCN)NC(=O)[C@H](CCCNC(=N)N)NC(=O)[C@H](CC(C)C)NC(=O)[C@H](CC(C)C)NC(=O)CNC(=O)[C@H](CC(C)C)NC(=O)[C@@H]1CCCN1C(=O)[C@H](CC(C)C)NC(=O)[C@H](CC(=O)O)NC(=O)[C@@H](NC(=O)[C@H](CO)NC(=O)[C@@H](NC(=O)[C@@H]1CCCN1C(=O)[C@@H]1CCCN1C(=O)CNC(=O)[C@@H]1CCC(=O)N1)[C@@H](C)CC)[C@@H](C)CC)[C@@H](C)CC)[C@@H](C)CC)[C@@H](C)O)C(=O)O` ([pGlu]GPPISIDLPLGLLRKMIEIEKQEKEKQQAANNRLLLDTI-OH), the EC50 [1] is reported as 312 nM and the EC50 [2] is reported as 21.6 nM.
With `CC[C@H](C)[C@H](NC(=O)[C@@H](NC(=O)[C@H](CC(=O)O)NC(=O)[C@H](CC(C)C)NC(=O)[C@H](CC(C)C)NC(=O)[C@H](CC(C)C)NC(=O)[C@H](CCCNC(=N)N)NC(=O)[C@H](CC(N)=O)NC(=O)[C@H](CC(N)=O)NC(=O)[C@H](C)NC(=O)[C@H](C)NC(=O)[C@H](CCC(N)=O)NC(=O)[C@H](CCC(N)=O)NC(=O)[C@H](CCCCN)NC(=O)[C@H](CCC(=O)O)NC(=O)[C@H](CCCCN)NC(=O)[C@H](CCC(=O)O)NC(=O)[C@H](CCC(N)=O)NC(=O)[C@H](CCCCN)NC(=O)[C@H](CCC(=O)O)NC(=O)[C@@H](NC(=O)[C@H](CCC(=O)O)NC(=O)[C@@H](NC(=O)[C@H](CCSC)NC(=O)[C@H](CCCCN)NC(=O)[C@H](CCCNC(=N)N)NC(=O)[C@H](CC(C)C)NC(=O)[C@H](CC(C)C)NC(=O)[C@H](Cc1cccc2ccccc12)NC(=O)[C@H](CCC(N)=O)NC(=O)[C@@H]1CCCN1C(=O)[C@H](CC(C)C)NC(=O)[C@H](CC(=O)O)NC(=O)[C@@H](NC(=O)[C@H](CO)NC(=O)[C@@H](NC(=O)[C@@H]1CCCN1C(=O)[C@@H]1CCCN1C(=O)CNC(=O)[C@@H]1CCC(=O)N1)[C@@H](C)CC)[C@@H](C)CC)[C@@H](C)CC)[C@@H](C)CC)[C@@H](C)O)C(=O)O` ([pGlu]GPPISIDLPQ[1Nal]LLRKMIEIEKQEKEKQQAANNRLLLDTI-OH) the EC50 [1] was 367 nM and the EC50 [2] was 14.1 nM.
In the case of `CC[C@H](C)[C@H](NC(=O)[C@@H](NC(=O)[C@H](CC(=O)O)NC(=O)[C@H](CC(C)C)NC(=O)[C@H](CC(C)C)NC(=O)[C@H](CC(C)C)NC(=O)[C@H](CCCNC(=N)N)NC(=O)[C@H](CC(N)=O)NC(=O)[C@H](CC(N)=O)NC(=O)[C@H](C)NC(=O)[C@H](C)NC(=O)[C@H](CCC(N)=O)NC(=O)[C@H](CCC(N)=O)NC(=O)[C@H](CCCCN)NC(=O)[C@H](CCC(=O)O)NC(=O)[C@H](CCCCN)NC(=O)[C@H](CCC(=O)O)NC(=O)[C@H](CCC(N)=O)NC(=O)[C@H](CCCCN)NC(=O)[C@H](CCC(=O)O)NC(=O)[C@@H](NC(=O)[C@H](CCC(=O)O)NC(=O)[C@@H](NC(=O)[C@H](CCSC)NC(=O)[C@H](CCCCN)NC(=O)[C@H](CCCNC(=N)N)NC(=O)[C@H](CC(C)C)NC(=O)[C@H](CC(C)C)NC(=O)[C@H](Cc1ccc2ccccc2c1)NC(=O)[C@H](C)NC(=O)[C@@H]1CCCN1C(=O)[C@H](CC(C)C)NC(=O)[C@H](CC(=O)O)NC(=O)[C@@H](NC(=O)[C@H](CO)NC(=O)[C@@H](NC(=O)[C@@H]1CCCN1C(=O)[C@@H]1CCCN1C(=O)CNC(=O)[C@@H]1CCC(=O)N1)[C@@H](C)CC)[C@@H](C)CC)[C@@H](C)CC)[C@@H](C)CC)[C@@H](C)O)C(=O)O` ([pGlu]GPPISIDLPA[2Nal]LLRKMIEIEKQEKEKQQAANNRLLLDTI-OH), the EC50 [1] is reported as 582 nM and the EC50 [2] is reported as 13.3 nM.
`CC[C@H](C)[C@H](NC(=O)[C@@H](NC(=O)[C@H](CC(=O)O)NC(=O)[C@H](CC(C)C)NC(=O)[C@H](CC(C)C)NC(=O)[C@H](CC(C)C)NC(=O)[C@H](CCCNC(=N)N)NC(=O)[C@H](CC(N)=O)NC(=O)[C@H](CC(N)=O)NC(=O)[C@H](C)NC(=O)[C@H](C)NC(=O)[C@H](CCC(N)=O)NC(=O)[C@H](CCC(N)=O)NC(=O)[C@H](CCCCN)NC(=O)[C@H](CCC(=O)O)NC(=O)[C@H](CCCCN)NC(=O)[C@H](CCC(=O)O)NC(=O)[C@H](CCC(N)=O)NC(=O)[C@H](CCCCN)NC(=O)[C@H](CCC(=O)O)NC(=O)[C@@H](NC(=O)[C@H](CCC(=O)O)NC(=O)[C@@H](NC(=O)[C@H](CCSC)NC(=O)[C@H](CCCCN)NC(=O)[C@H](CCCNC(=N)N)NC(=O)[C@H](CC(C)C)NC(=O)[C@H](CC(C)C)NC(=O)[C@H](CCC(=O)O)NC(=O)[C@H](CC(C)C)NC(=O)[C@@H]1CCCN1C(=O)[C@H](CC(C)C)NC(=O)[C@H](CC(=O)O)NC(=O)[C@@H](NC(=O)[C@H](CO)NC(=O)[C@@H](NC(=O)[C@@H]1CCCN1C(=O)[C@@H]1CCCN1C(=O)CNC(=O)[C@@H]1CCC(=O)N1)[C@@H](C)CC)[C@@H](C)CC)[C@@H](C)CC)[C@@H](C)CC)[C@@H](C)O)C(=O)O` gave an EC50 [1] of 96 nM and an EC50 [2] of 10.9 nM.
